Assay results taken from patent US11970498B2, “CDK2 inhibitors” (BLUEPRINT MEDICINES CORPORATION, priority 2021, dated 2024).

Assays:
CDK2/Cyclin E = CDK2/Cyclin E (Homo sapiens, UniProt P24941); assay: CDK2/Cyclin E biochemical phosphorylation assay (Caliper mobility shift); conditions: apparent IC50; 1.0 mM ATP or ATP Km; 1.25 nM enzyme; 25° C.; read-out: CDK2/cyclin E1 IC50
Experimental: (§1) Inhibitory effects of the compounds of the disclosure were measured in biochemical assays that measure the enzymatic phosphorylation activity of CDK enzyme in complex of Cyclin proteins phosphorylates 7.5 micromolar fluorescently labelled peptide substrate, 5-FAM-QSPKKG-CONH2, (FL-Peptide 18, Perkin Elmer, 760362) in the presence of adenosine-5′-triphosphate (ATP) and varying concentrations of the test compound in 100 mM 2-[4-(2-hydroxyethyl)piperazin-1-yl] ethanesulfonic acid (HEPES), pH 7.5, 10 mM MgCl2, 0.015% Brij-35, 1 mM dithiothreitol (DTT), 1.0% dimethylsulfoxide (DMSO). Assays were performed at 1.0 mM ATP or at ATP Km of the CDK enzymes in complex with Cyclin proteins. Reactions proceeded until between 10% to 20% total peptides were phosphorylated at room temperature (25° C.) and were terminated with 35 mM 2,2′,2″,2′″-(ethane-1,2-diyldinitrilo)tetraacetic acid (EDTA). Product was detected using the Caliper mobility shift detection method where the phosphorylated peptide (product) and substrate were electrophoretically separated and measured. Percent activity was plotted against log concentration of compound and points to generate an apparent IC50. The following CDK enzymes in complex with different cyclin proteins were used in these assays: • CDK1/Cyclin B1, GST-tag (BPS, 40454), 1.5 nM used in the assay • CDK2/Cyclin E (Eurofins, 14-475), 1.25 nM used in the assays
(§2) For inhibitory activity against CDK2/Cyclin E mutant, the following designations are used: ≤10 nM=A; >10-20 nM=B; >20-30 nM=C; >30-100 nM=D and >100=E. For inhibition CDK1/Cyclin B1, GST-tag: ≥500 nM=A; <100-500 nM=B; <100 nM=C.

CDK1/Cyclin B1, GST-tag = molecular target: T1, CDK1/Cyclin B1, GST-tag (Homo sapiens, UniProt P06493); assay: CDK1/Cyclin B1 biochemical phosphorylation assay (Caliper mobility shift); conditions: apparent IC50; 1.0 mM ATP or ATP Km; 1.5 nM enzyme; 25° C.
T1 construct: GST
T1 sequence (P06493 whole entry): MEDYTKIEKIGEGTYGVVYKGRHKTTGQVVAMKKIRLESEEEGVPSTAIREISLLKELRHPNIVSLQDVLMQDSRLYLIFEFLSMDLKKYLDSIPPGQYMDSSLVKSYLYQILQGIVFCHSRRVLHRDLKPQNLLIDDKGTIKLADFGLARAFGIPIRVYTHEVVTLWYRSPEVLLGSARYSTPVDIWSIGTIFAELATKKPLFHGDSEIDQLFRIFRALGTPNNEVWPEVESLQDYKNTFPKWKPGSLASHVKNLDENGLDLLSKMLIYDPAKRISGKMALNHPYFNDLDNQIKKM
T1 sequence (P14635 whole entry partner): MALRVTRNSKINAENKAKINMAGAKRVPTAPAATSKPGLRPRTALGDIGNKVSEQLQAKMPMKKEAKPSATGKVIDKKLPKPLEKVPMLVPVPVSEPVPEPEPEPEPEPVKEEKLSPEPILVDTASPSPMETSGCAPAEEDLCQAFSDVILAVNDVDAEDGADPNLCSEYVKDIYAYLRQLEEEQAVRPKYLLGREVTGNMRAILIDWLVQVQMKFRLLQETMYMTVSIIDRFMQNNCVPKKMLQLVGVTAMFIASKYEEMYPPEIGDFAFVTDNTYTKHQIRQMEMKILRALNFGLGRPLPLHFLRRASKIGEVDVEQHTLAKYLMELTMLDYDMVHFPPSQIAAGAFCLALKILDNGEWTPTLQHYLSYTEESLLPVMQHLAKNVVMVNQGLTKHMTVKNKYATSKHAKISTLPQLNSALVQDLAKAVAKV
Experimental: as §1, §2

Compound | IC50 (CDK2/Cyclin E) | IC50 (CDK1/Cyclin B1, GST-tag)
O[C@H]1C[C@H](n2ncc3ncc(Nc4cc(OC(F)F)[nH]n4)nc32)C1 (single isomer, unassigned) [Example 145, (1r,3r)-3-(6-((5-(difluoromethoxy)-1H-pyrazol-3-yl)amino)-1H-pyrazolo[3,4-b]pyrazin-1-yl)cyclobutan-1-ol or (1s,3s)-3-(6-((5-(difluoromethoxy)-1H-pyrazol-3-yl)amino)-1H-pyrazolo[3,4-b]pyrazin-1-yl)cyclobutan-1-ol] | > 100 nM | ≥ 500 nM
O[C@H]1C[C@H](n2ncc3ncc(Nc4cc(OC(F)F)[nH]n4)nc32)C1 (single isomer, unassigned) [Example 146, (1s,3s)-3-(6-((5-(difluoromethoxy)-1H-pyrazol-3-yl)amino)-1H-pyrazolo[3,4-b]pyrazin-1-yl)cyclobutan-1-ol or (1r,3r)-3-(6-((5-(difluoromethoxy)-1H-pyrazol-3-yl)amino)-1H-pyrazolo[3,4-b]pyrazin-1-yl)cyclobutan-1-ol] | 20 to 30 nM | ≥ 500 nM
FC(F)Oc1cc(Nc2cnc3cnn([C@H](c4ccccn4)C(F)F)c3n2)n[nH]1 (single isomer, unassigned) [Example 149, (R)-1-(2,2-difluoro-1-(pyridin-2-yl)ethyl)-N-(5-(difluoromethoxy)-1H-pyrazol-3-yl)-1H-pyrazolo[3,4-b]pyrazin-6-amine or (S)-1-(2,2-difluoro-1-(pyridin-2-yl)ethyl)-N-(5-(difluoromethoxy)-1H-pyrazol-3-yl)-1H-pyrazolo[3,4-b]pyrazin-6-amine] | 30 to 100 nM | ≥ 500 nM
C[C@@H](c1ccc(F)nc1)n1ncc2ncc(Nc3cc(OC(F)F)[nH]n3)nc21 (single isomer, unassigned) [Example 152, (R)-N-(5-(difluoromethoxy)-1H-pyrazol-3-yl)-1-(1-(6-fluoropyridin-3-yl)ethyl)-1H-pyrazolo[3,4-b]pyrazin-6-amine or (S)-N-(5-(difluoromethoxy)-1H-pyrazol-3-yl)-1-(1-(6-fluoropyridin-3-yl)ethyl)-1H-pyrazolo[3,4-b]pyrazin-6-amine] | 20 to 30 nM | ≥ 500 nM
C[C@@H](c1cncc(F)c1)n1ncc2ncc(Nc3cc(OC(F)F)[nH]n3)nc21 (single isomer, unassigned) [Example 154, (R)-N-(5-(difluoromethoxy)-1H-pyrazol-3-yl)-1-(1-(5-fluoropyridin-3-yl)ethyl)-1H-pyrazolo[3,4-b]pyrazin-6-amine or (S)-N-(5-(difluoromethoxy)-1H-pyrazol-3-yl)-1-(1-(5-fluoropyridin-3-yl)ethyl)-1H-pyrazolo[3,4-b]pyrazin-6-amine] | 20 to 30 nM | ≥ 500 nM
C[C@H](c1cccc(F)n1)n1ncc2ncc(Nc3cc(OC(F)F)[nH]n3)nc21 (single isomer, unassigned) [Example 155, (R)-N-(5-(difluoromethoxy)-1H-pyrazol-3-yl)-1-(1-(6-fluoropyridin-2-yl)ethyl)-1H-pyrazolo[3,4-b]pyrazin-6-amine or (S)-N-(5-(difluoromethoxy)-1H-pyrazol-3-yl)-1-(1-(6-fluoropyridin-2-yl)ethyl)-1H-pyrazolo[3,4-b]pyrazin-6-amine] | 30 to 100 nM | ≥ 500 nM
FC(F)Oc1cc(Nc2cnc3cnn([C@H](C4CCOCC4)C4CC4)c3n2)n[nH]1 (single isomer, unassigned) [Example 157, (S)-1-(cyclopropyl(tetrahydro-2H-pyran-4-yl)methyl)-N-(5-(difluoromethoxy)-1H-pyrazol-3-yl)-1H-pyrazolo[3,4-b]pyrazin-6-amine or (R)-1-(cyclopropyl(tetrahydro-2H-pyran-4-yl)methyl)-N-(5-(difluoromethoxy)-1H-pyrazol-3-yl)-1H-pyrazolo[3,4-b]pyrazin-6-amine] | 30 to 100 nM | ≥ 500 nM

Other lines, results leading:

IC50 (CDK2/Cyclin E) | IC50 (CDK1/Cyclin B1, GST-tag) | Compound
≤ 10 nM | 100 to 500 nM | FC(F)Oc1cc(Nc2cnc3cnn(C[C@H]4CCCOC4)c3n2)n[nH]1 (single isomer, unassigned) [Example 142, (S)-N-(5-(difluoromethoxy)-1H-pyrazol-3-yl)-1-((tetrahydro-2H-pyran-3-yl)methyl)-1H-pyrazolo[3,4-b]pyrazin-6-amine or (R)-N-(5-(difluoromethoxy)-1H-pyrazol-3-yl)-1-((tetrahydro-2H-pyran-3-yl)methyl)-1H-pyrazolo[3,4-b]pyrazin-6-amine]
10 to 20 nM | ≥ 500 nM | FC(F)Oc1cc(Nc2cnc3cnn(C[C@H]4CCOC4)c3n2)n[nH]1 (single isomer, unassigned) [Example 143, (R)-N-(5-(difluoromethoxy)-1H-pyrazol-3-yl)-1-((tetrahydrofuran-3-yl)methyl)-1H-pyrazolo[3,4-b]pyrazin-6-amine or (S)-N-(5-(difluoromethoxy)-1H-pyrazol-3-yl)-1-((tetrahydrofuran-3-yl)methyl)-1H-pyrazolo[3,4-b]pyrazin-6-amine]
≤ 10 nM | < 100 nM | FC(F)Oc1cc(Nc2cnc3cnn(C[C@H]4CCOC4)c3n2)n[nH]1 (single isomer, unassigned) [Example 144, (S)-N-(5-(difluoromethoxy)-1H-pyrazol-3-yl)-1-((tetrahydrofuran-3-yl)methyl)-1H-pyrazolo[3,4-b]pyrazin-6-amine or (R)-N-(5-(difluoromethoxy)-1H-pyrazol-3-yl)-1-((tetrahydrofuran-3-yl)methyl)-1H-pyrazolo[3,4-b]pyrazin-6-amine]
≤ 10 nM | ≥ 500 nM | FC(F)Oc1cc(Nc2cnc3cnn([C@@H](c4cccnc4)C4CC4)c3n2)n[nH]1 (single isomer, unassigned) [Example 147, (R)-1-(cyclopropyl(pyridin-3-yl)methyl)-N-(5-(difluoromethoxy)-1H-pyrazol-3-yl)-1H-pyrazolo[3,4-b]pyrazin-6-amine or (S)-1-(cyclopropyl(pyridin-3-yl)methyl)-N-(5-(difluoromethoxy)-1H-pyrazol-3-yl)-1H-pyrazolo[3,4-b]pyrazin-6-amine]
≤ 10 nM | ≥ 500 nM | FC(F)Oc1cc(Nc2cnc3cnn([C@@H](c4cccnc4)C4CC4)c3n2)n[nH]1 (single isomer, unassigned) [Example 148, (S)-1-(cyclopropyl(pyridin-3-yl)methyl)-N-(5-(difluoromethoxy)-1H-pyrazol-3-yl)-1H-pyrazolo[3,4-b]pyrazin-6-amine or (R)-1-(cyclopropyl(pyridin-3-yl)methyl)-N-(5-(difluoromethoxy)-1H-pyrazol-3-yl)-1H-pyrazolo[3,4-b]pyrazin-6-amine]
10 to 20 nM | ≥ 500 nM | FC(F)Oc1cc(Nc2cnc3cnn([C@H](c4ccccn4)C(F)F)c3n2)n[nH]1 (single isomer, unassigned) [Example 150, (S)-1-(2,2-difluoro-1-(pyridin-2-yl)ethyl)-N-(5-(difluoromethoxy)-1H-pyrazol-3-yl)-1H-pyrazolo[3,4-b]pyrazin-6-amine or (R)-1-(2,2-difluoro-1-(pyridin-2-yl)ethyl)-N-(5-(difluoromethoxy)-1H-pyrazol-3-yl)-1H-pyrazolo[3,4-b]pyrazin-6-amine]
≤ 10 nM | ≥ 500 nM | C[C@@H](c1ccc(F)nc1)n1ncc2ncc(Nc3cc(OC(F)F)[nH]n3)nc21 (single isomer, unassigned) [Example 151, (S)-N-(5-(difluoromethoxy)-1H-pyrazol-3-yl)-1-(1-(6-fluoropyridin-3-yl)ethyl)-1H-pyrazolo[3,4-b]pyrazin-6-amine or (R)-N-(5-(difluoromethoxy)-1H-pyrazol-3-yl)-1-(1-(6-fluoropyridin-3-yl)ethyl)-1H-pyrazolo[3,4-b]pyrazin-6-amine]
10 to 20 nM | ≥ 500 nM | C[C@@H](c1cncc(F)c1)n1ncc2ncc(Nc3cc(OC(F)F)[nH]n3)nc21 (single isomer, unassigned) [Example 153, (S)-N-(5-(difluoromethoxy)-1H-pyrazol-3-yl)-1-(1-(5-fluoropyridin-3-yl)ethyl)-1H-pyrazolo[3,4-b]pyrazin-6-amine or (R)-N-(5-(difluoromethoxy)-1H-pyrazol-3-yl)-1-(1-(5-fluoropyridin-3-yl)ethyl)-1H-pyrazolo[3,4-b]pyrazin-6-amine]
≤ 10 nM | ≥ 500 nM | C[C@H](c1cccc(F)n1)n1ncc2ncc(Nc3cc(OC(F)F)[nH]n3)nc21 (single isomer, unassigned) [Example 156, (S)-N-(5-(difluoromethoxy)-1H-pyrazol-3-yl)-1-(1-(6-fluoropyridin-2-yl)ethyl)-1H-pyrazolo[3,4-b]pyrazin-6-amine or (R)-N-(5-(difluoromethoxy)-1H-pyrazol-3-yl)-1-(1-(6-fluoropyridin-2-yl)ethyl)-1H-pyrazolo[3,4-b]pyrazin-6-amine]
